ChEMBL document CHEMBL1201862, “PubChem BioAssay data set” (2004)
Active and inactive are the calls of the source.

Key:
[1] = viability inhibitors of stage V gametocytes – luminescence, dose response (AID 1117278); assay type: functional, cell-based;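 further: gametocytes exposed to compound for 24 hours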
[2] = viability loss in human Jurkat cells – cell-based, luminescence, cytotoxicity control for P. falciparum gametocyte viability project, dose response (AID 1117277); assay type: functional;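 further: potency reflects loss of cellular ATP meaning fewer viable cells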
[3] = target: T1, 1-phosphatidylinositol 4,5-bisphosphate phosphodiesterase gamma-1 (Homo sapiens, UniProt P19174); experiment: Counterscreen for inhibitors of phospholipase C isozymes (PLC-B3): Fluorescence-based biochemical high throughput dose response assay to identify inhibitors of phospholipase C isozymes (PLC-gamma1).
T1 sequence (P19174 whole entry): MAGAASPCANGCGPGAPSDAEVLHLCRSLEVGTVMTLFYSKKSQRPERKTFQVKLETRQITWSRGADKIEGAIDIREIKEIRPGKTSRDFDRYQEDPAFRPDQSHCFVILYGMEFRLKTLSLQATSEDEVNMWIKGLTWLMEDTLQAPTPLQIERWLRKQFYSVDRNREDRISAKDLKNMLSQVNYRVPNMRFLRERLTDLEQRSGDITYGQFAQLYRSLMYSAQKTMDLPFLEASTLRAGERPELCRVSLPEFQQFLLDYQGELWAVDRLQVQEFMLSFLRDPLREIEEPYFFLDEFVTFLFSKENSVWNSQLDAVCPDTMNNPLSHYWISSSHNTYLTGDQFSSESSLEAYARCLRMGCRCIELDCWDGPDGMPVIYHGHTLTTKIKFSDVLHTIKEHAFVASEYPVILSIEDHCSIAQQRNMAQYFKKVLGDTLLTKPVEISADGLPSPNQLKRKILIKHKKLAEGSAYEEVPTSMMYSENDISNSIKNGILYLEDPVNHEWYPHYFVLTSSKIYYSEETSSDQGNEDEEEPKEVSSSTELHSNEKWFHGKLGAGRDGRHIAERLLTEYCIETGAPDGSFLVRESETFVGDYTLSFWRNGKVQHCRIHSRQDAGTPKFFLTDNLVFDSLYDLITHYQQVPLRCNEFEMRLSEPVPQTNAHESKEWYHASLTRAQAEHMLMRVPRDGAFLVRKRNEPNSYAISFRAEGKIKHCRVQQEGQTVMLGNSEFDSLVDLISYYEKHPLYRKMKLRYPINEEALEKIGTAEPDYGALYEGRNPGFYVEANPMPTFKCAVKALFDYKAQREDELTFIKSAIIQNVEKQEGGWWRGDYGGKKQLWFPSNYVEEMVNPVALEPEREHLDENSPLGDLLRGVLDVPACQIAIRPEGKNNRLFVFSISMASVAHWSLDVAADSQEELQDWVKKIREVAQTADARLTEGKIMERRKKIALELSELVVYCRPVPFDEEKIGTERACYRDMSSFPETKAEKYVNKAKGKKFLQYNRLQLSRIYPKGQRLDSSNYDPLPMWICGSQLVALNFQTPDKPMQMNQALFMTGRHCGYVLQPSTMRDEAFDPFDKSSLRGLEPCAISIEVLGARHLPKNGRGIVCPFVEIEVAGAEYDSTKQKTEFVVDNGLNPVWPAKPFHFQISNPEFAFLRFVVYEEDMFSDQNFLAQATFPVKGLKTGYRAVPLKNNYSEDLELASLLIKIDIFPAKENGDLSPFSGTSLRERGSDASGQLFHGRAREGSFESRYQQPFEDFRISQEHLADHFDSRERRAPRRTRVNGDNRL

[4] = target: T2, 1-phosphatidylinositol 4,5-bisphosphate phosphodiesterase beta-3 (Homo sapiens, UniProt Q01970); experiment: Fluorescence-based biochemical high throughput dose response assay to identify inhibitors of phospholipase C isozymes (PLC-B3).
T2 sequence (Q01970 whole entry): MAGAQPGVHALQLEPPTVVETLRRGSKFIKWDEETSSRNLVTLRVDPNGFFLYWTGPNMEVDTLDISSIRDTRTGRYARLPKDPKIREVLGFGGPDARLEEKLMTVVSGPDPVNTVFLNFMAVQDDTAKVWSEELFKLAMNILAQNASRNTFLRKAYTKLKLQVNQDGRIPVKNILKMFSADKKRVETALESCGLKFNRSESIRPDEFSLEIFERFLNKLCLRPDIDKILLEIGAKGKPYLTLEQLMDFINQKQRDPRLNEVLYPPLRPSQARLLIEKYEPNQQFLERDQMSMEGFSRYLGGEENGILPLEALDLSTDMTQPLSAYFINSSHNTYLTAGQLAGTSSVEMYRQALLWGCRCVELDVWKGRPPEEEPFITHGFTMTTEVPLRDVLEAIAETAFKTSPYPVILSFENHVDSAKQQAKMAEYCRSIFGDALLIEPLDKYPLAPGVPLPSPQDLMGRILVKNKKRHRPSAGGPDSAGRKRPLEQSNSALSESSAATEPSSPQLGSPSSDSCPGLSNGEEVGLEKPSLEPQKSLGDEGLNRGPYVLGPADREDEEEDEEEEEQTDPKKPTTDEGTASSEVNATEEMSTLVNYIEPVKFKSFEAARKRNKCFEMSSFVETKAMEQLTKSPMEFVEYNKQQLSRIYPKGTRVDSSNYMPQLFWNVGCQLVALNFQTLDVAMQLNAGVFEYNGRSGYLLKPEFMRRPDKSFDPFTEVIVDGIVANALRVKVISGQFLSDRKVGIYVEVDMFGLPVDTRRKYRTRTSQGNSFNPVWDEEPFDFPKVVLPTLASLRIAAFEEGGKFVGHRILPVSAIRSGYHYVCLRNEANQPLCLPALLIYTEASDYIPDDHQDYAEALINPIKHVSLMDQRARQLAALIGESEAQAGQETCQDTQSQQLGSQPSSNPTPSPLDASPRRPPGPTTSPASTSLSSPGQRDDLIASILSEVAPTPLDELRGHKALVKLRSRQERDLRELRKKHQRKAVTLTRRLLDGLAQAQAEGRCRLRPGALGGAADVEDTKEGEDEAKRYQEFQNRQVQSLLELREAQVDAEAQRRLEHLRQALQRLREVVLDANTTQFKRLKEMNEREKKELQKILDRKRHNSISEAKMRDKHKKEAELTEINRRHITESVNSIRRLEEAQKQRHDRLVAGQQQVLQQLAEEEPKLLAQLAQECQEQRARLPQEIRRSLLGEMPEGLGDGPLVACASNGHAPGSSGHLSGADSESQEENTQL

[5] = HGIII-sPLA2 enzyme inhibition potency – biochemical, QFRET, IC50, dose response (AID 743457);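 further: green fluorescence rise as the enzyme cleaves BODIPY PC-A2 in liposomes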
[6] = general mammalian cell viability loss – activator set, cherry-pick, cytotoxicity control for miR-122 modulator project, dose response (AID 720690); assay type: functional, cell-based;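 further: HEK293T human cells scored for general mammalian cytotoxicity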
BJ [7] = experiment: cells; assay type: functional, cell-based; conditions: Homo sapiens
Fatty acid synthase [8] = target: T3, Fatty acid synthase (Homo sapiens, UniProt P49327); experiment: inhibition of human FAS-TE enzyme activity – biochemical, kinetic fluorescence intensity, dose response (AID 624326); assay type: functional;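 further: rate of fluorescence rise from hydrolysis of a fluorogenic O-methyl fluorescein ester substrate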
T3 sequence (P49327 whole entry): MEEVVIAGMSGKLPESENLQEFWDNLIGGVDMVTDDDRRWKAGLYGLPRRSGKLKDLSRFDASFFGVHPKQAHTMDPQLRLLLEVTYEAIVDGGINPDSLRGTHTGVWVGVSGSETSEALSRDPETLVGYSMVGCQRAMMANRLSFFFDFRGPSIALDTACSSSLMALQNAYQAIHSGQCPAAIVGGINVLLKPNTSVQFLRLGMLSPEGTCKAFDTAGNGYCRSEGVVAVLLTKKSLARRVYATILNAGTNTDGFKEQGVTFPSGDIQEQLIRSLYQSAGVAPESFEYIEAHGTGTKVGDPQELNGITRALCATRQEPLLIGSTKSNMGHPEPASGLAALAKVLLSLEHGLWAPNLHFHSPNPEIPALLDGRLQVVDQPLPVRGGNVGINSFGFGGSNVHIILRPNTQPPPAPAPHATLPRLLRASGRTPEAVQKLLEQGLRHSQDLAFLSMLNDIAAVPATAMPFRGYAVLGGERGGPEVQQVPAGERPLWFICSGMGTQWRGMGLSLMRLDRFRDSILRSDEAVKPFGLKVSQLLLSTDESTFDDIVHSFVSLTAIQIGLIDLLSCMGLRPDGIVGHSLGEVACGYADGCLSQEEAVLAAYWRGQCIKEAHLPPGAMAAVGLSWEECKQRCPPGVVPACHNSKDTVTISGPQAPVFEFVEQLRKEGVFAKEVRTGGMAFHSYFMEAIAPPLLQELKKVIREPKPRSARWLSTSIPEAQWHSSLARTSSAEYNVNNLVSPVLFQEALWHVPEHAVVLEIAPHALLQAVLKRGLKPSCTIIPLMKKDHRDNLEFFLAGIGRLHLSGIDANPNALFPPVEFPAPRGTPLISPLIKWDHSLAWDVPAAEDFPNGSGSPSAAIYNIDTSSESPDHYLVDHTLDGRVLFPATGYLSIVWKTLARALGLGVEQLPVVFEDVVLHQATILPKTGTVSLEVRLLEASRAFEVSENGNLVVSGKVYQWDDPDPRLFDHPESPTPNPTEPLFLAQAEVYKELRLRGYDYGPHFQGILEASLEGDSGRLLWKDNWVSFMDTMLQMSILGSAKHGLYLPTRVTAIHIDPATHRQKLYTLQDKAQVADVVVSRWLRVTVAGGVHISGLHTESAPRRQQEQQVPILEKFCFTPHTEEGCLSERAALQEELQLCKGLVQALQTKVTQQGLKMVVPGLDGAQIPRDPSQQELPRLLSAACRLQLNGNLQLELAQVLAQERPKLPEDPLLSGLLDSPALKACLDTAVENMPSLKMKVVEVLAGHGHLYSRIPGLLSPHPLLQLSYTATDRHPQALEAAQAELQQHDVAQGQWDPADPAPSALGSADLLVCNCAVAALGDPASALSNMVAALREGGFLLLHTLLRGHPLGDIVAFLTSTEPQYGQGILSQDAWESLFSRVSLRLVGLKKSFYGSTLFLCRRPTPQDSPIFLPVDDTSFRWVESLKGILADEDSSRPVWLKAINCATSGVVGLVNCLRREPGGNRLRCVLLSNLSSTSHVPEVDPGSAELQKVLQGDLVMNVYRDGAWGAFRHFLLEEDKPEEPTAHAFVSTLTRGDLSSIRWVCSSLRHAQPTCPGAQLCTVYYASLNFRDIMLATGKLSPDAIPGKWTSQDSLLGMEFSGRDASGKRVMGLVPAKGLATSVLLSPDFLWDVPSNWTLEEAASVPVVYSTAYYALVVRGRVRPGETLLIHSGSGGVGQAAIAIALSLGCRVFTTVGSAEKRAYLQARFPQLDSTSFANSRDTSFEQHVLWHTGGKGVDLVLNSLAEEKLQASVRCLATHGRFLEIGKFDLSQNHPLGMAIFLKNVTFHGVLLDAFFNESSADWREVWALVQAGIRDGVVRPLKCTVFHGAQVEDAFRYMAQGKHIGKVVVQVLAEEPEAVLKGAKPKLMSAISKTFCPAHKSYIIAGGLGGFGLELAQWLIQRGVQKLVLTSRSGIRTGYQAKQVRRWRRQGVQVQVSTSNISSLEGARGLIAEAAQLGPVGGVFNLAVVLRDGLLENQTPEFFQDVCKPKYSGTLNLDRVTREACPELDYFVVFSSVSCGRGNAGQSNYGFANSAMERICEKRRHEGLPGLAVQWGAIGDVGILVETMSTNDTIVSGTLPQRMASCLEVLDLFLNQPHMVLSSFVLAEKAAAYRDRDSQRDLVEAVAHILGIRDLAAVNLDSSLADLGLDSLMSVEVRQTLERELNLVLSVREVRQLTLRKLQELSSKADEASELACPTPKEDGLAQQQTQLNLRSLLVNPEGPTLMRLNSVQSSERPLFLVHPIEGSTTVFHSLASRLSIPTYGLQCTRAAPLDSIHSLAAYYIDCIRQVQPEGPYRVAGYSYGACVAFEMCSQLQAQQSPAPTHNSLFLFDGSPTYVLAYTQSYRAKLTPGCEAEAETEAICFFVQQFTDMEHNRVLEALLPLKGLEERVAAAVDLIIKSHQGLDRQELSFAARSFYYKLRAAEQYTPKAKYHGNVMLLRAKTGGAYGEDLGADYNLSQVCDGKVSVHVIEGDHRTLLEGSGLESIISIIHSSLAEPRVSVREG

[9] = general mammalian cell viability loss – inhibitor set, cherry-pick, set 2, cytotoxicity control for miR-122 modulator project, dose response (AID 720697); assay type: functional, cell-based
BJ [10] = experiment: BJ-TERT-LT-ST fibroblast viability loss – cell-based, RAS-independent, luminescence, dose response (AID 1935); assay type: functional; conditions: Homo sapiens;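 further: BJ fibroblasts immortalized with TERT plus LT and ST oncogenes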
[11] = DRD fibroblast viability loss – cell-based, non-viral oncogenic, luminescence, dose response (AID 1934); assay type: functional; conditions: Homo sapiens
Fatty acid synthase [12] = target: T3, Fatty acid synthase; experiment: inhibition of human FAS-TE enzyme activity – biochemical, endpoint fluorescence intensity, uHTS hits, dose response (AID 624327); assay type: functional;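 further: fluorescence from hydrolysis of an O-methyl fluorescein acyl ester substrate by the enzyme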
BJ [13] = experiment: growth inhibition of engineered Ras-driven BJ cells – cell-based, alamar blue fluorescence, cherrypicked samples, dose response (AID 2631); assay type: functional; conditions: Homo sapiens;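 further: confirmatory dose-response assay in RAS-dependent BJ fibroblasts engineered with TERT, LT and ST, with cytotoxicity read by fluorescence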
BJ [14] = experiment: BJ-TERT fibroblast viability loss – cell-based, RAS-independent, luminescence, dose response (AID 1933); assay type: functional; conditions: Homo sapiens
[15] = activation of miR-122 Renilla sensor silencing – cell-based, Huh7 psiCHECK-miR122, Renilla luciferase, cherry-picked, dose response (AID 651956); assay type: functional;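 further: huh7 hepatoma cells stably carrying a psiCHECK-2 miR-122 sensor plasmid; renilla luciferase signal reporting endogenous miR-122 activity after 48 h compound exposure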
[16] = viability loss in Vero cells – cytotoxicity control for Vif-APOBEC3G degradation inhibitor project, dose response (AID 1117358); assay type: functional; conditions: Vero
Cytochrome P450 1A2 = target: T4, Cytochrome P450 1A2 (Homo sapiens, UniProt P05177);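 further: PubChem cytochrome P450 panel assay, CYP1A2 panel member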
T4 sequence (P05177 whole entry): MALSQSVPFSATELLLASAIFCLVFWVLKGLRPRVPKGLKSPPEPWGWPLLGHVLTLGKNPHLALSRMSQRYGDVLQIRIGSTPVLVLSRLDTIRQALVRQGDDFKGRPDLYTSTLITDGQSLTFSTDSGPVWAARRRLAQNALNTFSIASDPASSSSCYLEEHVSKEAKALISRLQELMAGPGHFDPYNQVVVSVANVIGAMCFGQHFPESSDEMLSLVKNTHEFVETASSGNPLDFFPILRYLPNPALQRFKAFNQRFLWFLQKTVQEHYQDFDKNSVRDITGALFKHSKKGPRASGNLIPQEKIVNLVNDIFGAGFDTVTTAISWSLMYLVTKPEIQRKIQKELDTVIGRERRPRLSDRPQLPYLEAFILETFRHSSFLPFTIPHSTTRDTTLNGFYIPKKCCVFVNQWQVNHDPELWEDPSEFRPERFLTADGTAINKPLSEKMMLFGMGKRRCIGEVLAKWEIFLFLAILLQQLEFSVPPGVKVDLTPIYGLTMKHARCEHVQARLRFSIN

In the case of NS(=O)(=O)c1ccc(N2CCCC2=O)c([N+](=O)[O-])c1, the IC50 [1] was > 109 µM (inactive) and the IC50 [2] was > 83.2 µM (inactive).

With COc1ccc(CCNCc2c(OC)ccc3ccccc23)cc1 the IC50 [3] was > 123 µM (inactive) and the IC50 [4] was > 123 µM (inactive).

For COc1ccc(N=Nc2nc(-c3ccccc3)c(-c3ccccc3)[nH]2)cc1, the IC50 [5] was > 122 µM (inactive).

For O=C(NC(Nc1ncc(S(=O)(=O)c2ccc([N+](=O)[O-])cc2)s1)(C(F)(F)F)C(F)(F)F)c1ccc(Cl)cc1, the AC50 [6] was 4.29 µM (active), the EC50 (BJ [7]) was 52.1 µM (active) and the IC50 (Fatty acid synthase [8]) was 7.87 µM (active). For the same compound, the AC50 [9] was 9.01 µM (active), the EC50 (BJ [10]) was 20.1 µM (active) and the EC50 [11] was 12.4 µM (active). The IC50 (Fatty acid synthase [12]) was 9.12 µM (active), the EC50 (BJ [13]) was 83.6 µM (active) and the EC50 (BJ [14]) was 11 µM (inconclusive). For the same compound, the AC50 [15] was 2.35 µM (active).

With Sc1nnc(COc2ccc(Cl)cc2)n1-c1ccccc1 the IC50 [5] was > 122 µM (inactive).

With Cc1ccc(NS(=O)(=O)c2ccc(OCC(=O)Nc3cccc([N+](=O)[O-])c3)c(C)c2)cc1 the CC50 [16] was > 40 µM (active) and the AC50 (Cytochrome P450 1A2) was 22.4 µM (inconclusive).

With COc1ccccc1-n1c(CNCC2CCCO2)nc2ccccc2c1=O (stereo not given) the IC50 [3] was > 122 µM (inactive) and the IC50 [4] was > 122 µM (inactive).
